# Patent publication US7414061B2, “Aryl-isoxazol-4-yl-imidazole derivatives” (Hoffmann-La Roche Inc., priority 2005, dated 2008)
# Biological target: T1, GABA A receptor α5β3γ2 (hα5) (Homo sapiens, UniProt P18507+P31644)
# T1 construct: expressed in transfected cells; host or cells: HEK293 (transiently transfected), membrane preparation
# Experiment: [3H]flumazenil competition binding assay, human GABA A α5β3γ2
# Conditions: displacement of [3H]flumazenil (0.5 nM) from HEK293 cell membranes expressing α5β3γ2; means of two determinations; read-out: Ki[nM] hα5
# Method: The affinity of compounds at GABA A receptor subtypes was measured by competition for [3H]flumazenil (85 Ci/mmol; Roche) binding to HEK293 cells expressing rat (stably transfected) or human (transiently transfected) receptors of composition α1β3γ2, α2β3γ2, α3β3γ2 and α5β3γ2.
# Cell pellets were suspended in Krebs-tris buffer (4.8 mM KCl, 1.2 mM CaCl2, 1.2 mM MgCl2, 120 mM NaCl, 15 mM Tris; pH 7.5; binding assay buffer), homogenized by polytron for ca. 20 sec on ice and centrifuged for 60 min at 4° C. (50000 g; Sorvall, rotor: SM24=20000 rpm). The cell pellets were resuspended in Krebs-tris buffer and homogenized by polytron for ca. 15 sec on ice. Protein was measured (Bradford method, Bio-Rad) and aliquots of 1 mL were prepared and stored at −80° C.
# Radioligand binding assays were carried out in a volume of […] (96-well plates) which contained […] of cell membranes, [3H]flumazenil at a concentration of 1 nM for α1, α2, α3 subunits and 0.5 nM for α5 subunits and the test compound in the range of […]. Nonspecific binding was defined by 10^−5 M diazepam and typically represented less than 5% of the total binding. Assays were incubated to equilibrium for 1 hour at 4° C. and harvested onto GF/C uni-filters (Packard) by filtration using a Packard harvester and washing with ice-cold wash buffer (50 mM Tris; pH 7.5). After drying, filter-retained radioactivity was detected by liquid scintillation counting. Ki values were calculated using Excel-Fit (Microsoft) and are the means of two determinations.
row,Ki [nM],Structure (SMILES)
1,14.6,"Cc1onc(-c2ccccc2)c1-c1cn(-c2ccc(C(=O)NCCCN3CCOCC3)cc2)cn1 [Example 73, 4-[4-(5-Methyl-3-phenyl-isoxazol-4-yl)-imidazol-1-yl]-N-(3-morpholin-4-yl-propyl)-benzamide]"
2,5.1,"Cc1onc(-c2ccccc2)c1-c1cn(-c2ccc(C(=O)NC3CC3)cc2)cn1 [Example 74, N-Cyclopropyl-4-[4-(5-methyl-3-phenyl-isoxazol-4-yl)-imidazol-1-yl]-benzamide]"
3,2.7,"Cc1onc(-c2ccccc2)c1-c1cn(-c2ccc(C(=O)NC3CCC3)cc2)cn1 [Example 75, N-Cyclobutyl-4-[4-(5-methyl-3-phenyl-isoxazol-4-yl)-imidazol-1-yl]-benzamide]"
4,10.9,"Cc1onc(-c2ccccc2)c1-c1cn(-c2ccc(C(=O)NC3CCCC3)cc2)cn1 [Example 76, N-Cyclopentyl-4-[4-(5-methyl-3-phenyl-isoxazol-4-yl)-imidazol-1-yl]-benzamide]"
5,27.3,"Cc1onc(-c2ccccc2)c1-c1cn(-c2ccc(C(=O)NC3CCOCC3)cc2)cn1 [Example 77, 4-[4-(5-Methyl-3-phenyl-isoxazol-4-yl)-imidazol-1-yl]-N-(tetrahydro-pyran-4-yl)-benzamide]"
6,12.8,"Cc1onc(-c2ccccc2)c1-c1cn(-c2ccc(C(=O)NCc3cccnc3)cc2)cn1 [Example 78, 4-[4-(5-Methyl-3-phenyl-isoxazol-4-yl)-imidazol-1-yl]-N-pyridin-3-ylmethyl-benzamide]"
7,14,"Cc1onc(-c2ccccc2)c1-c1cn(-c2ccc(C(=O)NCc3ccncc3)cc2)cn1 [Example 79, 4-[4-(5-Methyl-3-phenyl-isoxazol-4-yl)-imidazol-1-yl]-N-pyridin-4-ylmethyl-benzamide]"
8,19.5,"Cc1onc(-c2ccccc2)c1-c1cn(-c2cccc([N+](=O)[O-])c2)cn1 [Example 82, 5-Methyl-4-[1-(3-nitro-phenyl)-1H-imidazol-4-yl]-3-phenyl-isoxazole]"
9,31.8,"Cc1onc(-c2ccccc2)c1-c1cn(-c2cccc(C(=O)NC3CC3)c2)cn1 [Example 84, N-Cyclopropyl-3-[4-(5-methyl-3-phenyl-isoxazol-4-yl)-imidazol-1-yl]-benzamide]"
10,10,"C#CCNC(=O)c1ccc(-n2cnc(-c3c(-c4cccc(F)c4)noc3C)c2)cc1 [Example 97, 4-{4-[3-(3-Fluoro-phenyl)-5-methyl-isoxazol-4-yl]-imidazol-1-yl}-N-prop-2-ynyl-benzamide]"
11,17.7,"Cc1onc(-c2cccc(F)c2)c1-c1cn(-c2ccc(C(=O)NC3CC3)cc2)cn1 [Example 98, N-Cyclopropyl-4-{4-[3-(3-fluoro-phenyl)-5-methyl-isoxazol-4-yl]-imidazol-1-yl}-benzamide]"
12,27,"Cc1onc(-c2cccc(F)c2)c1-c1cn(-c2ccc(C(=O)NCCO)cc2)cn1 [Example 101, 4-{4-[3-(3-Fluoro-phenyl)-5-methyl-isoxazol-4-yl]-imidazol-1-yl}-N-(2-hydroxy-ethyl)-benzamide]"
13,32.1,"Cc1onc(-c2cccc(F)c2)c1-c1cn(-c2ccc(C(=O)NCc3ccccn3)cc2)cn1 [Example 106, 4-{4-[3-(3-Fluoro-phenyl)-5-methyl-isoxazol-4-yl]-imidazol-1-yl}-N-pyridin-2-ylmethyl-benzamide]"
14,31,"Cc1onc(-c2ccc(F)cc2)c1-c1cn(-c2ccc(F)cc2)cn1 [Example 114, 3-(4-Fluoro-phenyl)-4-[1-(4-fluoro-phenyl)-1H-imidazol-4-yl]-5-methyl-isoxazole]"
15,13.2,"Cc1onc(-c2ccc(F)cc2)c1-c1cn(-c2ccc(C#N)cc2)cn1 [Example 116, 4-{4-[3-(4-Fluoro-phenyl)-5-methyl-isoxazol-4-yl]-imidazol-1-yl}-benzonitrile]"
16,13.3,"Cc1onc(-c2ccc(F)cc2)c1-c1cn(-c2ccncc2)cn1 [Example 117, 4-{4-[3-(4-Fluoro-phenyl)-5-methyl-isoxazol-4-yl]-imidazol-1-yl}-pyridine]"
17,29,"Cc1cccc(-n2cnc(-c3c(-c4ccc(F)cc4)noc3C)c2)c1 [Example 118, 3-(4-Fluoro-phenyl)-5-methyl-4-(1-m-tolyl-1H-imidazol-4-yl)-isoxazole]"
18,33.7,"Cc1onc(-c2ccc(F)cc2)c1-c1cn(-c2cccc(F)c2)cn1 [Example 119, 3-(4-Fluoro-phenyl)-4-[1-(3-fluoro-phenyl)-1H-imidazol-4-yl]-5-methyl-isoxazole]"

row,Ki [nM],Structure (SMILES)
1,25.6,"Cc1onc(-c2ccc(F)cc2)c1-c1cn(-c2cccc(C#N)c2)cn1 [Example 122, 3-{4-[3-(4-Fluoro-phenyl)-5-methyl-isoxazol-4-yl]-imidazol-1-yl}-benzonitrile]"
2,27.2,"Cc1onc(-c2ccc(F)cc2)c1-c1cn(-c2cccnc2)cn1 [Example 124, 3-{4-[3-(4-Fluoro-phenyl)-5-methyl-isoxazol-4-yl]-imidazol-1-yl}-pyridine]"
3,13.6,"COC(=O)c1ccc(-n2cnc(-c3c(-c4ccc(F)cc4)noc3C)c2)cc1 [Example 125, 4-{4-[3-(4-Fluoro-phenyl)-5-methyl-isoxazol-4-yl]-imidazol-1-yl}-benzoic acid methyl ester]"
4,11.9,"Cc1onc(-c2ccc(F)cc2)c1-c1cn(-c2ccc(C(=O)NC3CCCC3)cc2)cn1 [Example 126, N-Cyclopentyl-4-{4-[3-(4-fluoro-phenyl)-5-methyl-isoxazol-4-yl]-imidazol-1-yl}-benzamide]"
5,21.5,"Cc1ccc(-n2cnc(-c3c(-c4ccc(F)cc4)noc3C)c2)cc1[N+](=O)[O-] [Example 131, 3-(4-Fluoro-phenyl)-5-methyl-4-[1-(4-methyl-3-nitro-phenyl)-1H-imidazol-4-yl]-isoxazole]"
6,29.8,"CCc1onc(-c2ccc(F)cc2)c1-c1cn(-c2ccc(C(F)(F)F)cc2)cn1 [Example 133, 5-Ethyl-3-(4-fluoro-phenyl)-4-[1-(4-trifluoromethyl-phenyl)-1H-imidazol-4-yl]-isoxazole]"
7,12.7,"CCc1onc(-c2ccc(F)cc2)c1-c1cn(-c2ccc([N+](=O)[O-])cc2)cn1 [Example 134, 5-Ethyl-3-(4-fluoro-phenyl)-4-[1-(4-nitro-phenyl)-1H-imidazol-4-yl]-isoxazole]"
8,1.64,"CC(=O)c1ccc(-n2cnc(-c3c(-c4ccccc4)noc3C3CC3)c2)cc1 [Example 135, 1-{4-[4-(5-Cyclopropyl-3-phenyl-isoxazol-4-yl)-imidazol-1-yl]-phenyl}-ethanone]"
9,1.71,"O=[N+]([O-])c1ccc(-n2cnc(-c3c(-c4ccccc4)noc3C3CC3)c2)cc1 [Example 136, 5-Cyclopropyl-4-[1-(4-nitro-phenyl)-1H-imidazol-4-yl]-3-phenyl-isoxazole]"
10,28.2,"N#Cc1ccc(-n2cnc(-c3c(-c4ccccc4)noc3CO)c2)cc1 [Example 139, 4-[4-(5-Hydroxymethyl-3-phenyl-isoxazol-4-yl)-imidazol-1-yl]-benzonitrile]"
11,9.8,"CC(=O)c1ccc(-n2cnc(-c3c(-c4ccc(F)cc4)noc3CO)c2)cc1 [Example 140, 1-(4-{4-[3-(4-Fluoro-phenyl)-5-hydroxymethyl-isoxazol-4-yl]-imidazol-1-yl}-phenyl)-ethanone]"
12,17.1,"Cc1onc(-c2ccccc2)c1-c1cn(-c2ccccc2)c(COCc2ccccc2)n1 [Example 146, 4-(2-Benzyloxymethyl-1-phenyl-1H-imidazol-4-yl)-5-methyl-3-phenyl-isoxazole]"
13,18.1,"Cc1onc(-c2ccccc2)c1-c1cn(-c2ccc([N+](=O)[O-])cc2)c(CO)n1 [Example 147, [4-(5-Methyl-3-phenyl-isoxazol-4-yl)-1-(4-nitro-phenyl)-1H-imidazol-2-yl]-methanol]"
14,23.3,"Cc1onc(-c2ccccc2)c1-c1cn(-c2ccc([N+](=O)[O-])cc2)c(CCl)n1 [Example 148, 4-[2-Chloromethyl-1-(4-nitro-phenyl)-1H-imidazol-4-yl]-5-methyl-3-phenyl-isoxazole]"
15,29.9,"Cc1onc(-c2ccccc2)c1-c1cn(-c2ccc([N+](=O)[O-])cc2)c(C=O)n1 [Example 149, 4-(5-Methyl-3-phenyl-isoxazol-4-yl)-1-(4-nitro-phenyl)-1H-imidazole-2-carbaldehyde]"
16,17.3,"Cc1ccc(COCc2nc(-c3c(-c4ccccc4)noc3C)cn2-c2ccc([N+](=O)[O-])cc2)cc1 [Example 153, 5-Methyl-4-[2-(4-methyl-benzyloxymethyl)-1-(4-nitro-phenyl)-1H-imidazol-4-yl]-3-phenyl-isoxazole]"
17,13.5,"Cc1onc(-c2ccccc2)c1-c1cn(-c2ccc([N+](=O)[O-])cc2)c(COCc2ccc(F)cc2)n1 [Example 154, 4-[2-(4-Fluoro-benzyloxymethyl)-1-(4-nitro-phenyl)-1H-imidazol-4-yl]-5-methyl-3-phenyl-isoxazole]"
18,17,"Cc1onc(-c2ccccc2)c1-c1cn(-c2ccc([N+](=O)[O-])cc2)c(COCc2cccc(F)c2)n1 [Example 158, 4-[2-(3-Fluoro-benzyloxymethyl)-1-(4-nitro-phenyl)-1H-imidazol-4-yl]-5-methyl-3-phenyl-isoxazole]"
